# Measured values published in patent publication US20240287080A1 (IDEAYA Biosciences Inc., priority 2021, published 2024).
# Target: T1, Pol theta (1-899) (Homo sapiens, UniProt O75417)
# T1 construct: Pol theta (1-899) (5 nM) in assay buffer
# Test: Pol theta ATPase activity, NADH oxidation-coupled enzymatic assay (ATPase NADH coupling: Standard Screening: hPolQ)
# Format: biochemical
# Details: Pol theta (1-899) 5 nM, NADH oxidation-coupled ATPase assay; compounds of Table 3
# Experimental: The ability of the compounds of Formula (I) or Table 1 to inhibit ATPase activity of Pol theta (1-899) was determined using the assay described below. Pol Theta ATPase activity was determined by measuring the rate of ATP turn over in a NADH oxidation-coupled enzymatic assay. 10-point dilution series of compounds were used in a 384 well format for the inhibition assays. Pol theta (1-899) (5 nM) in assay buffer (20 mM Tris HCl (pH 7.80), 80 mM KCl, 10 mM MgCl2, 1 mM DTT, 0.01% BSA, 0.01% Tween, 5% glycerol) was transferred to the test wells (20 μL), except the low control wells (20 μL of assay buffer was added to the low control wells). The plate was then incubated at room temperature for 15 min. An equal volume (20 μL) of 100 μM ATP, 300 nM […] (single-stranded DNA (ssDNA) containing 50 thymine bases), 300 μM NADH, 6 mM PEP, 10 U/mL lactate dehydrogenase and 20 U/mL pyruvate kinase in assay buffer was added to all the test wells. The plate was then centrifuged at 1000 rpm for 1 min. The reaction was monitored for 60 min by measuring absorbance (λ=340 nm) in a Tecan Spark multimode plate reader every minute. The high control (DMSO with enzyme) with low absorbance intensity represents no inhibition of ATPase reaction while the low control (DMSO with buffer) with high absorbance intensity represents full inhibition of ATPase activity. Slope of the reaction progress curves were used to calculate the rate of ATP hydrolysis. The rates were used to determine the percent inhibition using a four-parameter inhibition model to generate IC50, Hill slope and max inhibition.
# T1 sequence (O75417 1-899): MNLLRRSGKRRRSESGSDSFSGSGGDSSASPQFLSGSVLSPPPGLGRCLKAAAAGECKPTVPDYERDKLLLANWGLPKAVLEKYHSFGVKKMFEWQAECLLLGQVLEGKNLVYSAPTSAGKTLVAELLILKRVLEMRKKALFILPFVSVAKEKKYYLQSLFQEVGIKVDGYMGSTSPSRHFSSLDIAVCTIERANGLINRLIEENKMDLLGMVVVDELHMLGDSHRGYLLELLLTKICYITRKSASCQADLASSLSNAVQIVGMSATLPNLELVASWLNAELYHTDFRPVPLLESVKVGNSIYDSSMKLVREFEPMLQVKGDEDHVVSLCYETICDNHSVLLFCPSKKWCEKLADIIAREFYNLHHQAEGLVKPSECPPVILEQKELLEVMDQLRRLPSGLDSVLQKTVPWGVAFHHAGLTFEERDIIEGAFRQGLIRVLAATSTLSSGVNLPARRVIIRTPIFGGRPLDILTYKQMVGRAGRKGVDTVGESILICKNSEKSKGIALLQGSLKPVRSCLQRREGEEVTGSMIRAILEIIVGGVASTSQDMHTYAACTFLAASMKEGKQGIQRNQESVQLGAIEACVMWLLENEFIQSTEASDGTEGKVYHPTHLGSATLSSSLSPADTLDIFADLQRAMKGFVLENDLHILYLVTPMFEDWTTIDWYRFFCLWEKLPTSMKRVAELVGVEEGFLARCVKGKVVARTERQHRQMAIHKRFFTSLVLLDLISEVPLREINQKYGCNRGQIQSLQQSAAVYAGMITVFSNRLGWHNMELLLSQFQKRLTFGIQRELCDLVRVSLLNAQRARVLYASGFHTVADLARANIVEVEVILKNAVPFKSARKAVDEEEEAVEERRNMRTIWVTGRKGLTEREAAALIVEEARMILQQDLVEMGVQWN
row,SMILES,IC50
1,"COc1nnc(NC(=O)c2cnc(C)cc2-c2ccc(C#N)nc2C)s1 [Example 434, 6-cyano-N-(5-methoxy-1,3,4-thiadiazol-2-yl)-2,6′-dimethyl-[3,4′-bipyridine]-3′-carboxamide]",1000 to 10000 nM
2,"COc1nnc(NC(=O)c2cnc(C)cc2-c2cccc(CC#N)c2)s1 [Example 477, 4-[3-(cyanomethyl)phenyl]-N-(5-methoxy-1,3,4-thiadiazol-2-yl)-6-methylpyridine-3-carboxamide]",1000 to 10000 nM
3,"COc1nnc(NC(=O)c2cnc(C)cc2-c2ccc(C(=O)O)cc2)s1 [Example 366, 4-(5-((5-methoxy-1,3,4-thiadiazol-2-yl)carbamoyl)-2-methylpyridin-4-yl)benzoic acid]",1000 to 10000 nM
4,"COc1nnc(NC(=O)c2cnc(C)cc2-c2ccco2)s1 [Example 391, 4-(furan-2-yl)-N-(5-methoxy-1,3,4-thiadiazol-2-yl)-6-methylpyridine-3-carboxamide]",1000 to 10000 nM
5,"COc1cnc(C)c(F)c1-c1cc(C)ncc1C(=O)Nc1nnc(OC2([C@@H]3CCOC3)CC2)s1 (single isomer, unassigned) [Example 293]",≤ 200 nM
6,"COc1cnc(C)c(F)c1-c1cc(C)ncc1C(=O)Nc1nnc(O[C@H]2CC[C@H](CO)CC2)s1 [Example 314, 3′-fluoro-N-(5-(((1r,4r)-4-(hydroxymethyl)cyclohexyl)oxy)-1,3,4-thiadiazol-2-yl)-5′-methoxy-2′,6-dimethyl-[4,4′-bipyridine]-3-carboxamide]",≤ 200 nM
7,"COc1nnc(NC(=O)c2cnc(C)cc2-c2cncc(C(=O)N(C)C)c2)s1 [Example 483, N3′-(5-methoxy-1,3,4-thiadiazol-2-yl)-N5,N5,6′-trimethyl-[3,4′-bipyridine]-3′,5-dicarboxamide]",1000 to 10000 nM
8,"COc1ccc(-c2cc(C)ncc2C(=O)Nc2nnc(OC)s2)c(F)c1 [Example 445, 4-(2-fluoro-4-methoxyphenyl)-N-(5-methoxy-1,3,4-thiadiazol-2-yl)-6-methylnicotinamide]",1000 to 10000 nM
9,"COc1nnc(NC(=O)c2cnc(C)cc2-c2ccc3nccnc3c2)s1 [Example 341, N-(5-methoxy-1,3,4-thiadiazol-2-yl)-6-methyl-4-(quinoxalin-6-yl)pyridine-3-carboxamide]",500 to 1000 nM
10,"COc1nnc(NC(=O)c2cnc(C)cc2-c2ccoc2)s1 [Example 390, 4-(furan-3-yl)-N-(5-methoxy-1,3,4-thiadiazol-2-yl)-6-methylpyridine-3-carboxamide]",1000 to 10000 nM
11,"COc1cc(C(=O)Nc2nnc(OC)s2)c(-c2cc(Cl)ncc2OC)cn1 [Example 242, 2′-chloro-5′,6-dimethoxy-N-(5-methoxy-1,3,4-thiadiazol-2-yl)-[3,4′-bipyridine]-4-carboxamide]",≤ 200 nM
12,"COc1nnc(NC(=O)c2cnc(C)cc2-c2ccc(OC(C)C)c(C#N)c2)s1 [Example 473, 4-[3-cyano-4-(propan-2-yloxy)phenyl]-N-(5-methoxy-1,3,4-thiadiazol-2-yl)-6-methylpyridine-3-carboxamide]",≤ 200 nM
13,"COc1nnc(NC(=O)c2cnc(C)cc2-c2ccc(CN(C)C)nc2)s1 [Example 474, 6-((dimethylamino)methyl)-N-(5-methoxy-1,3,4-thiadiazol-2-yl)-6′-methyl-[3,4′-bipyridine]-3′-carboxamide]",1000 to 10000 nM
14,"COc1nnc(NC(=O)c2cnc(C)cc2-c2ccc3c(c2)OCCN3C)s1 [Example 418, N-(5-methoxy-1,3,4-thiadiazol-2-yl)-6-methyl-4-(4-methyl-3,4-dihydro-2H-1,4-benzoxazin-7-yl)pyridine-3-carboxamide]",1000 to 10000 nM
15,"Cc1cc(-c2cc(Cl)ncc2OC(F)F)c(C(=O)Nc2nnc(O[C@H]3CCC[C@@H](O)C3)s2)cn1 (single isomer, unassigned) [Example 253]",≤ 200 nM
16,"CNC(=O)c1ccc(-c2cc(C)ncc2C(=O)Nc2nnc(OC)s2)cn1 [Example 479, N3′-(5-methoxy-1,3,4-thiadiazol-2-yl)-N6,6′-dimethyl-[3,4′-bipyridine]-3′,6-dicarboxamide]",1000 to 10000 nM
17,"COc1nnc(NC(=O)c2cnc(C)cc2-c2ccc(C(F)(F)F)cc2)s1 [Example 355, N-(5-methoxy-1,3,4-thiadiazol-2-yl)-methyl4-(4-(trifluoromethyl)phenyl) nicotinamide]",1000 to 10000 nM
18,"COc1nnc(NC(=O)c2cc(CC#N)ncc2-c2cc(Cl)ncc2OC)s1 [Example 302, 2′-chloro-6-(cyanomethyl)-5′-methoxy-N-(5-methoxy-1,3,4-thiadiazol-2-yl)-[3,4′-bipyridine]-4-carboxamide]",≤ 200 nM
19,"COc1nnc(NC(=O)c2cnc(C)cc2-c2cncc(F)c2)s1 [Example 471, 5-fluoro-N-(5-methoxy-1,3,4-thiadiazol-2-yl)-6′-methyl-[3,4′-bipyridine]-3′-carboxamide]",1000 to 10000 nM
20,"COc1cnc(C)c(F)c1-c1cc(C)ncc1C(=O)Nc1nnc(OC2([C@H]3CCOC3)CC2)s1 (single isomer, unassigned) [Example 287]",≤ 200 nM

# Same assay, conditions: Table 4; Pol theta (1-899) 5 nM, ATP, dT50 ssDNA
row,SMILES,IC50
1,"COc1nnc(NC(=O)c2cn3ccnc3cc2-c2c(F)cccc2OC)s1 [Example 50, 7-(2-fluoro-6-methoxyphenyl)-N-(5-methoxy-1,3,4-thiadiazol-2-yl)imidazo(1,2-a)pyridine-6-carboxamide]",1000 to 10000 nM
2,"COc1nnc(NC(=O)c2cnc(C)cc2-c2c(F)cccc2OC(F)F)s1 [Example 32, 4-(2-(difluoromethoxy)-6-fluorophenyl)-N-(5-methoxy-1,3,4-thiadiazol-2-yl)-6-methylnicotinamide]",≤ 200 nM
3,"COc1nnc(NC(=O)c2cnc(C)cc2-c2cc(Cl)ncc2C)s1 [Example 39, 2′-chloro-N-(5-methoxy-1,3,4-thiadiazol-2-yl)-5′,6-dimethyl-(4,4′-bipyridine)-3-carboxamide]",≤ 200 nM

# Same assay, conditions: Table 5; Pol theta (1-899) 5 nM, ATP, dT50 ssDNA
row,SMILES,IC50
1,"COc1cnc(Cl)cc1-c1cc(C2CCCC2)ncc1C(=O)Nc1nnc(O[C@@H]2CCOC2)s1 [Example 134, (R)-2′-chloro-6-cyclopentyl-5′-methoxy-N-(5-((tetrahydrofuran-3-yl)oxy)-1,3,4-thiadiazol-2-yl)-(4,4′-bipyridine)-3-carboxamide]",500 to 1000 nM
2,"COc1cnc(Cl)cc1-c1cc(C)ncc1C(=O)Nc1nnc(O[C@H]2CC[C@@H](CO)CC2)s1 [Example 169, 2′-chloro-N-(5-(((1s,4s)-4-(hydroxymethyl)cyclohexyl)oxy)-1,3,4-thiadiazol-2-yl)-5′-methoxy-6-methyl-(4,4′-bipyridine)-3-carboxamide]",≤ 200 nM
3,"COc1cnc(Br)cc1-c1cc(C)ncc1C(=O)Nc1nnc(O[C@H]2CC[C@](C)(O)CC2)s1 (single isomer, unassigned) [Example 225, 2′-bromo-N-(5-(((1r,4r)-4-hydroxy-4-methylcyclohexyl)oxy)-1,3,4-thiadiazol-2-yl)-5′-methoxy-6-methyl-(4,4′-bipyridine)-3-carboxamide]",≤ 200 nM
4,"COc1cnc(Br)cc1-c1cc(C)ncc1C(=O)Nc1nnc(OC2COC2)s1 [Example 188, 2′-bromo-5′-methoxy-6-methyl-N-(5-(oxetan-3-yloxy)-1,3,4-thiadiazol-2-yl)-(4,4′-bipyridine)-3-carboxamide]",≤ 200 nM
5,"COc1nnc(NC(=O)c2cnc(C)cc2-c2ccnc3nccn23)s1 [Example 88, 4-(imidazo(1,2-a)pyrimidin-5-yl)-N-(5-methoxy-1,3,4-thiadiazol-2-yl)-6-methylnicotinamide]",1000 to 10000 nM
6,"COc1cnc(Br)cc1-c1cc(C)ncc1C(=O)Nc1nnc(O[C@H]2COC3(CC3)C2)s1 (single isomer, unassigned) [Example 227]",≤ 200 nM
7,"COc1cnc(Cl)c(F)c1-c1cc(C)ncc1C(=O)Nc1nnc(O[C@H]2CC[C@H](OC)CC2)s1 (single isomer, unassigned) [Example 153, 2′-chloro-3′-fluoro-5′-methoxy-N-(5-(((1r,4r)-4-methoxycyclohexyl)oxy)-1,3,4-thiadiazol-2-yl)-6-methyl-(4,4′-bipyridine)-3-carboxamide]",≤ 200 nM
8,"COc1nnc(NC(=O)c2cnc(COC3CC3)cc2-c2cc(Cl)ncc2OC)s1 [Example 215, 2′-chloro-6-(cyclopropoxymethyl)-5′-methoxy-N-(5-methoxy-1,3,4-thiadiazol-2-yl)-(4,4′-bipyridine)-3-carboxamide]",≤ 200 nM
9,"COc1cnc(Cl)cc1-c1cc(C)ncc1C(=O)Nc1nnc(O[C@H]2CC[C@@](C)(O)CC2)s1 (single isomer, unassigned) [Example 141, 2′-chloro-N-(5-(((1s,4s)-4-hydroxy-4-methylcyclohexyl)oxy)-1,3,4-thiadiazol-2-yl)-5′-methoxy-6-methyl-(4,4′-bipyridine)-3-carboxamide]",≤ 200 nM

# Same assay, conditions: Table 5; values given as bound; Pol theta (1-899) 5 nM, ATP, dT50 ssDNA
row,SMILES,IC50
1,"COc1nnc(NC(=O)c2ccn(-c3cc(Cl)ncc3OC)n2)s1 [Example 235, 1-(2-chloro-5-methoxypyridin-4-yl)-N-(5-methoxy-1,3,4-thiadiazol-2-yl)-1H-pyrazole-3-carboxamide]",> 10000 nM
